Results published in patent US20220330549A1, “USE OF N-BENZYLBENZAMIDE-BASED COMPOUND AS HERBICIDE” (Northwest A&F University, priority 2020, published 2022).

Columns and labels:
Assay type in all cases: in vivo
[1] = system: Barnyard grass; assay: Herbicidal activity test for indoor pre-emergence soil treatment; set-up: key: level 1-9; higher = more weed remaining vs blank control; settings: 150 g a.i./ha, visual inspection 21 days after treatment
Method: (§1) The herbicidal activity test for indoor pre-emergence soil treatment was performed with some of the N-benzylbenzamide-based compounds of general formula I or II with reference to the method of NY/T 1155.3-2006. Neutral sandy loam soil having an organic content of ≤2% was added to fill ⅘ of the pot, and the soil was completely moistened by infiltrating irrigation from the bottom of the pot. The seeds of the test weed were evenly spread on the soil surface, and then covered by 0.5 cm to 2.0 cm of soil depending on the seed size. Representative compounds in the examples were used to prepare emulsifiable concentrates (10%), and spray treatments to the soil were performed 24 hours after the sowing with the test agents diluted with water, at a spraying dosage of 150 g(a.i.)/ha. Then, the results were investigated by visual inspection 21 days after the treatments. The herbicidal activity of the agent was evaluated on a scale of 1-9 levels according to the symptoms and severity of damage to the test weeds.
(§2) Level 2: equivalent to 0 to 2.5% of the weed in the blank control area;
(§3) Level 3: equivalent to 2.6 to 5% of the weed in the blank control area;
(§4) Level 4: equivalent to 5.1 to 10% of the weed in the blank control area;
(§5) Level 5: equivalent to 10.1 to 15% of the weed in the blank control area;
(§6) Level 6: equivalent to 15.1 to 25% of the weed in the blank control area;
(§7) Level 7: equivalent to 25.1 to 35% of the weed in the blank control area;
(§8) Level 8: equivalent to 35.1 to 67.5% of the weed in the blank control area; and
(§9) Level 9: equivalent to 67.6 to 100% of the weed in the blank control area.

[2] = system: Piemarker; assay: as above; set-up: key: level 1-9; higher = more weed remaining vs blank control; settings: 150 g a.i./ha, visual inspection 21 days after treatment
Method: as §1, §2, §3, §4, §5, §6, §7, §8, §9

[3] = system: green bristlegrass; assay: as above; set-up: key: level 1-9; higher = more weed remaining vs blank control; settings: 150 g a.i./ha, visual inspection 21 days after treatment
Method: as §1, §2, §3, §4, §5, §6, §7, §8, §9

[4] = system: Amaranthus retroflexus; assay: as above; set-up: key: 1-9 levels; higher = more weed remaining vs blank control; settings: 150 g a.i./ha, visual inspection 21 days after treatment
Method: as §1, §2, §3, §4, §5, §6, §7, §8, §9

[5] = system: Digitaria sanguinalis; assay: as above; set-up: key: 1-9 levels; higher = more weed remaining vs blank control; settings: 150 g a.i./ha, visual inspection 21 days after treatment
Method: as §1, §2, §3, §4, §5, §6, §7, §8, §9

[6] = system: Humulus scandens; assay: as above; settings: 150 g a.i./ha, visual inspection 21 days after treatment
Method: as §1, §2, §3, §4, §5, §6, §7, §8, §9

[7] = system: Amaranthus retroflexus; assay: Herbicidal activity test for indoor post-emergence spraying on stems and leaves; set-up: key: grade level by weed remaining vs blank control, e.g. 5 = 10.1-15%; settings: 150 g a.i./ha, visual inspection 21 days after treatment
Method: (§10) The post-emergence herbicidal activity test was performed with some of the N-benzylbenzamide-based compounds of general formula I or II with reference to the method of NY/T 1155.4-2006. […] After the sowing, the weed was moved to a greenhouse for regular cultivation. […] Then, the results were investigated by visual inspection 21 days after the treatments. […] Level 5: equivalent to 10.1 to 15% of the weed in the blank control area; Level 6: equivalent to 15.1 to 25% of the weed in the blank control area; Level 7: equivalent to 25.1 to 35% of the weed in the blank control area; Level 8: equivalent to 35.1 to 67.5% of the weed in the blank control area; and […]

[8] = system: Barnyard grass; assay: as above; set-up: key: grade level by weed remaining vs blank control, e.g. 5 = 10.1-15%; settings: 150 g a.i./ha, visual inspection 21 days after treatment
Method: as §10

[9] = system: Digitaria sanguinalis; assay: as above; set-up: key: grade level by weed remaining vs blank control, e.g. 5 = 10.1-15%; settings: 150 g a.i./ha, visual inspection 21 days after treatment
Method: as §10

[10] = system: Humulus scandens; assay: as above; set-up: key: grade level by weed remaining vs blank control, e.g. 5 = 10.1-15%; settings: 150 g a.i./ha, visual inspection 21 days after treatment
Method: as §10

[11] = system: Piemarker; assay: as above; set-up: key: grade level by weed remaining vs blank control, e.g. 5 = 10.1-15%; settings: 150 g a.i./ha, visual inspection 21 days after treatment
Method: as §10

[12] = system: green bristlegrass; assay: as above; set-up: key: grade level by weed remaining vs blank control, e.g. 5 = 10.1-15%; settings: 150 g a.i./ha, visual inspection 21 days after treatment
Method: as §10

[13] = system: Broadleaf weed; assay: Post-emergence herbicidal activity test in a paddy field; set-up: key: level scale; higher level = more weed left vs blank control; settings: 150 g a.i./ha (penoxsulam control 250 g(a.i.)/h)
Method: (§11) The post-emergence herbicidal activity test was performed in a paddy field with some of the N-benzylbenzamide-based compounds of general formula I or II with reference to the method of GB/T 17980.40-2000. […] Spray treatments were performed in the stage where 4 leaves to 5 leaves were grown for the rice seedlings which was about 1 month after the sowing. Representative compounds in the examples were used to prepare emulsifiable concentrates (10%), and spray treatments were performed with the concentrates in water at a dosage of 150 g(a.i.)/ha, and repeated 4 times for each treatment, and the area was 50 m^2. 25 g/L of penoxsulam suspension was used as a control agent and applied at a dosage of 250 g(a.i.)/h. The results were investigated by a value estimating survey method 15 days and 30 days after the treatments. The relative weed population quantities were estimated by comparing each agent treated area with an adjacent blank control area, and the results of which were investigated with the following grading standard method using the overall coverage of the weed population as an indicator.
as §2, §3, §4, §5, §6, §7, §8, §9

[14] = system: Cyperaceae; assay: as above; set-up: key: level scale; higher level = more weed left vs blank control; settings: 150 g a.i./ha (penoxsulam control 250 g(a.i.)/h)
Method: as §11, §2, §3, §4, §5, §6, §7, §8, §9

[15] = system: Gramineae; assay: as above; set-up: key: level scale; higher level = more weed left vs blank control; settings: 150 g a.i./ha (penoxsulam control 250 g(a.i.)/h)
Method: as §11, §2, §3, §4, §5, §6, §7, §8, §9

[16] = system: Acalypha australis; assay: Field test for weed control in a corn field; settings: for Post-emergence weed control effect, Acalypha australis: 150 g a.i./ha, after treatment
Method: (§12) The weed control efficacy field test was performed in a corn field with some of the N-benzylbenzamide-based compounds of general formula I or II with reference to the method of GB/T 17980.42-2000. […] Spray treatments were performed in the stage where 2 leaves to 5 leaves were grown for the corns after the sowing. Representative compounds in the examples were used to prepare emulsifiable concentrates (10%), and spray treatments were performed with the concentrates in water at a dosage of 150 g(a.i.)/ha, and repeated 4 times for each treatment, and the area was 20 m^2. Oil dispersion with 25% of mesotrione was used as a control agent and applied at a dosage of 150 g(a.i.)/h. […] The herbicidal activities of the agents were evaluated on a scale of 1-9 levels according to the symptoms and severity of damage to the test weeds.
as §2, §3, §4, §5, §6, §7, §8, §9

[17] = system: Amaranthus retroflexus; assay: Field test for weed control in a corn field; settings: for Post-emergence weed control effect, Amaranthus retroflexus: 150 g a.i./ha, 30 days after treatment
Method: as §12, §2, §3, §4, §5, §6, §7, §8, §9

[18] = system: Barnyard grass; assay: Field test for weed control in a corn field; settings: for Post-emergence weed control effect, Barnyard grass: 150 g a.i./ha, 30 days after treatment
Method: as §12, §2, §3, §4, §5, §6, §7, §8, §9

[19] = system: Chenopodium album; assay: Field test for weed control in a corn field; settings: for Post-emergence weed control effect, Chenopodium album: 150 g a.i./ha, after treatment
Method: as §12, §2, §3, §4, §5, §6, §7, §8, §9

[20] = system: Convolvulus arvensis; assay: Field test for weed control in a corn field; settings: for Post-emergence weed control effect, Convolvulus arvensis: 150 g a.i./ha, after treatment
Method: as §12, §2, §3, §4, §5, §6, §7, §8, §9

[21] = system: Digitaria sanguinalis; assay: Field test for weed control in a corn field; settings: for Post-emergence weed control effect, Digitaria sanguinalis: 150 g a.i./ha, after treatment
Method: as §12, §2, §3, §4, §5, §6, §7, §8, §9

[22] = system: Portulaca oleracea; assay: Field test for weed control in a corn field; settings: for Post-emergence weed control effect, Portulaca oleracea: 150 g a.i./ha, after treatment
Method: as §12, §2, §3, §4, §5, §6, §7, §8, §9

[23] = system: Solanum nigrum; assay: Field test for weed control in a corn field; settings: for Post-emergence weed control effect, Solanum nigrum: 150 g a.i./ha, 30 days after treatment
Method: as §12, §2, §3, §4, §5, §6, §7, §8, §9

[24] = system: goosegrass; assay: Field test for weed control in a corn field; settings: for Post-emergence weed control effect, Goose grass: 150 g a.i./ha, after treatment
Method: as §12, §2, §3, §4, §5, §6, §7, §8, §9

[25] = system: green bristlegrass; assay: Field test for weed control in a corn field; settings: for Post-emergence weed control effect, Green bristlegrass: 150 g a.i./ha, after treatment
Method: as §12, §2, §3, §4, §5, §6, §7, §8, §9

[26] = system: nutgrass flatsedge; assay: Field test for weed control in a corn field; settings: for Post-emergence weed control effect, Nutgrass flatsedge: 150 g a.i./ha, after treatment
Method: as §12, §2, §3, §4, §5, §6, §7, §8, §9

[27] = 150 g(a.i.)/ha, 21 days after treatments

Compound | Herbicidal Activity Barnyard grass [1] | Herbicidal Activity Piemarker [2] | Herbicidal Activity Green bristlegrass [3] | Herbicidal Activity Amaranthus retroflexus [4] | Herbicidal Activity Digitaria sanguinalis [5] | Herbicidal Activity Humulus scandens [6] | Herbicidal Activity Amaranthus retroflexus [7] | Herbicidal Activity Barnyard grass [8] | Herbicidal Activity Digitaria sanguinalis [9] | Herbicidal Activity Humulus scandens [10] | Herbicidal Activity Piemarker [11] | Herbicidal Activity Green bristlegrass [12] | Herbicidal activity 15 days after treatment Broadleaf weed [13] | Herbicidal activity 30 days after treatment Broadleaf weed [13] | Herbicidal activity 15 days after treatment Cyperaceae [14] | Herbicidal activity 30 days after treatment Cyperaceae [14] | Herbicidal activity 15 days after treatment Gramineae [15] | Herbicidal activity 30 days after treatment Gramineae [15] | Post-emergence weed control effect, Acalypha australis [16] | Post-emergence weed control effect, Amaranthus retroflexus [17] | further results
Cc1cccc(C(=O)NCc2cc(F)cc(Cl)c2)n1 [Compound B27] | 1 | 1 | 1 | 1 | 1 | 1 | 1 | 1 | 1 | 1 | 1 | 1 | 1 | 1 | 1 | 1 | 1 | 1 | 1 | 1 | controlling effect on Acalypha australis [16, 27]: 1; controlling effect on Amaranthus retroflexus [17, 27]: 1; Post-emergence weed control effect, Barnyard grass [18]: 1; controlling effect on barnyard grass [18, 27]: 1; Post-emergence weed control effect, Chenopodium album [19]: 1; controlling effect on Chenopodium album [19, 27]: 1; Post-emergence weed control effect, Convolvulus arvensis [20]: 1; controlling effect on Convolvulus arvensis [20, 27]: 1; Post-emergence weed control effect, Digitaria sanguinalis [21]: 1; controlling effect on Digitaria sanguinalis [21, 27]: 1; Post-emergence weed control effect, Portulaca oleracea [22]: 1; controlling effect on Portulaca oleracea [22, 27]: 1; Post-emergence weed control effect, Solanum nigrum [23]: 1; controlling effect on Solanum nigrum [23, 27]: 1; Post-emergence weed control effect, Goose grass [24]: 1; controlling effect on goosegrass [24, 27]: 1; Post-emergence weed control effect, Green bristlegrass [25]: 1; controlling effect on green bristlegrass [25, 27]: 1; Post-emergence weed control effect, Nutgrass flatsedge [26]: 1; controlling effect on nutgrass flatsedge [26, 27]: 1
CS(=O)(=O)c1cc(C(F)(F)F)ccc1C(=O)c1cnoc1C1CC1 [Isoxaflutole, reference compound] | 1 | 1 | 1 | 1 | 1 | 1 | – | – | – | – | – | – | – | – | – | – | – | – | – | – | –
CS(=O)(=O)c1ccc(C(=O)C2C(=O)CCCC2=O)c([N+](=O)[O-])c1 [Mesotrione, reference compound] | – | – | – | – | – | – | 1 | 1 | 1 | 1 | 1 | 1 | – | – | – | – | – | – | 2 (equivalent to 0 to 2.5% of the weed in the blank control area) | 1 | Post-emergence weed control effect, Barnyard grass [18]: 1; Post-emergence weed control effect, Chenopodium album [19]: 1; Post-emergence weed control effect, Convolvulus arvensis [20]: 1; Post-emergence weed control effect, Digitaria sanguinalis [21]: 2 (equivalent to 0 to 2.5% of the weed in the blank control area); Post-emergence weed control effect, Portulaca oleracea [22]: 1; Post-emergence weed control effect, Solanum nigrum [23]: 1; Post-emergence weed control effect, Goose grass [24]: 2 (equivalent to 0 to 2.5% of the weed in the blank control area); Post-emergence weed control effect, Green bristlegrass [25]: 1; Post-emergence weed control effect, Nutgrass flatsedge [26]: 1
COc1cnc(OC)n2nc(NS(=O)(=O)c3c(OCC(F)F)cccc3C(F)(F)F)nc12 [Penoxsulam, reference compound] | – | – | – | – | – | – | – | – | – | – | – | – | 2 (equivalent to 0 to 2.5% of the weed in the blank control area) | 1 | 2 (equivalent to 0 to 2.5% of the weed in the blank control area) | 2 (equivalent to 0 to 2.5% of the weed in the blank control area) | 2 (equivalent to 0 to 2.5% of the weed in the blank control area) | 1 | – | – | –
